Assay results taken from PMC7614687, “Modulation of the substrate specificity of the kinase PDK1 by distinct conformations of the full-length protein*” (Science signaling, 2023).

Legend:
Type in all cases: binding
[1] = molecular target: T1, GST-PDK1_1-556 (Homo sapiens, UniProt O15530); assay: AlphaScreen GST-PDK1_1-556 / biotin-PIFtide interaction
T1 construct: made in house; host or cells: HEK293 cells (transient transfection of pEBG2T); peptide synthesized by Pepscan
T1 sequence (O15530 1-556): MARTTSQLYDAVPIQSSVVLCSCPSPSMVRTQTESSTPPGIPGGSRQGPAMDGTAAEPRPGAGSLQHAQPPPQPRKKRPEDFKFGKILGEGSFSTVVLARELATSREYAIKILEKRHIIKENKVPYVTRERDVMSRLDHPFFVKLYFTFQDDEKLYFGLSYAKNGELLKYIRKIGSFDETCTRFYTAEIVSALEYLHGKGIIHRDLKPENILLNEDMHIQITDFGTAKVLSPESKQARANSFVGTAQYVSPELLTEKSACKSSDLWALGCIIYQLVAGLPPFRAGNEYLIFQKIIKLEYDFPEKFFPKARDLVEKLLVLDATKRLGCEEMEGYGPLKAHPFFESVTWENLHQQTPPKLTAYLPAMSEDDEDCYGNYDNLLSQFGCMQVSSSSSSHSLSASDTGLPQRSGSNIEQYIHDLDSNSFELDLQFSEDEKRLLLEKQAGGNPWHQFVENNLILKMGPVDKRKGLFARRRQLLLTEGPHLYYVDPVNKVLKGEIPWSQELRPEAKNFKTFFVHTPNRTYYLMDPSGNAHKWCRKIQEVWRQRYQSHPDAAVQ
Procedure: The AlphaScreen® assay was performed following the general guidelines from the manufacturer (Perkin Elmer) ([29]). In short, the assay was performed in a final volume of 25 μl in white 384-well microtiter plates (Greiner) in a standard buffer containing 50 mM Tris-HCl (pH 7.4), 100 mM NaCl, 2 mM DTT, 0.01% (v/v) Tween-20 and 0.1% (w/v) BSA, with the addition of 5 μl of beads (anti-GST coated acceptor beads and streptavidin-coated donor beads; nickel chelate-coated acceptor beads and streptavidin-coated donor beads; or nickel chelate-coated acceptor beads and GSH-coated donor beads, 20 μg/ml final concentrations for each bead type). AlphaScreen assays for His-tagged proteins and GST-fusion proteins were performed using nickel chelate-coated acceptor beads and GSH-coated donor beads; alphascreen assays for His-tagged proteins and biotinylated molecules were performed using nickel chelate-coated acceptor beads and streptavidin-coated donor beads; alphascreen assays for GST-fusion proteins and biotinylated molecules were performed using anti-GST coated acceptor beads and streptavidin-coated donor beads (Perkin Elmer).
The interaction between GST-PDK1_1-556 and biotin-PIFtide was performed as described previously ([29], [32]) in the standard buffer, but the bead concentration was lowered to 15 μg/ml.

[2] = molecular target: T2, full-length PDK1 (GST-PDK1_1-556) (Homo sapiens, UniProt O15530); assay: Lipid overlay assay, di-C18-PIP3, full-length PDK1
T2 construct: made in house; host or cells: HEK293 cells (transient transfection of pEBG2T)
T2 sequence (O15530 1-556): T1 sequence (O15530 1-556)
Procedure: Dots containing 2-1000 picomoles of di-C18-PIP3 ([70]) were prepared by spotting 1 μL of serial dilution stock solutions (2-1000 μM dissolved in a 1:2:0.8 by volume mixture of chloroform/methanol/water) onto Hybond-C extra membrane (GE Healthcare), which were dried at room temperature. Membranes were incubated with blocking buffer (50 mm Tris-HCl buffer pH 7.5, 2 mg/ml fatty acid free bovine serum albumin, 150 mM NaCl, and 0.1% (v/v) Tween 20) for 1 h at room temperature. Membranes were then incubated with 10 nM protein/10 μM inhibitor mixes in blocking buffer with gentle rocking overnight at 4 °C. Membranes were washed 10 times over 1 h at room temperature using TBST buffer (50 mM Tris-HCl pH 7.5, 150 mM NaCl, 0.1% (v/v) Tween 20) before being incubated for 1 h with 1:2000 dilution of rabbit recombinant anti-PDK1 monoclonal antibody (New England Biolabs). Membranes were washed and incubated with 1:2000 dilution of anti-rabbit HRP conjugated antibody (Invitrogen/Thermo Fisher) for 1 h at room temperature. Finally, after washing, proteins bound to the membranes were detected using Novex ECL chemiluminescent reagent (Invitrogen/Thermo Fisher) and developed on X-ray film.

[3] = molecular target: T3, GST-PDK1_360-556 (Homo sapiens, UniProt O15530); assay: AlphaScreen biotin-PIP3 / GST-PDK1_360-556 (linker-PH domain) displacement; conditions: relative to 5 nM on GST-PDK1_1-556
T3 construct: GST-PDK1_360-556 (GST-PDK1-Linker-PH) was cloned into the BamHI-KpnI sites in pEBG2T plasmid; made in house; host or cells: HEK293 cells (transient transfection of pEBG2T)
T3 sequence (O15530 360-556): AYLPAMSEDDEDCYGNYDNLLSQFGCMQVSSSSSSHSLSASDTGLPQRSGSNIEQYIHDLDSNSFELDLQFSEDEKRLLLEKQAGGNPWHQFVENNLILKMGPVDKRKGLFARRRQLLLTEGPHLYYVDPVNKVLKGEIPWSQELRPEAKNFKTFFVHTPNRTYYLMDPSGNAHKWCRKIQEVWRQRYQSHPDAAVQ
Procedure: The AlphaScreen® assay was performed following the general guidelines from the manufacturer (Perkin Elmer) ([29]). In short, the assay was performed in a final volume of 25 μl in white 384-well microtiter plates (Greiner) in a standard buffer containing 50 mM Tris-HCl (pH 7.4), 100 mM NaCl, 2 mM DTT, 0.01% (v/v) Tween-20 and 0.1% (w/v) BSA, with the addition of 5 μl of beads (anti-GST coated acceptor beads and streptavidin-coated donor beads; nickel chelate-coated acceptor beads and streptavidin-coated donor beads; or nickel chelate-coated acceptor beads and GSH-coated donor beads, 20 μg/ml final concentrations for each bead type). […]
The conditions for each AlphaScreen assay were identified in cross-titration experiments for each interaction to choose the ideal pair of concentrations within the linear range of the interactions. […] His-PDK1 and GST-fusion protein in the presence or absence of the different compounds were incubated in the dark for 60 min at room temperature and the emission of light from the acceptor beads was measured in an EnVision reader (Perkin Elmer) or Spark plate reader (Tecan). […]
Biotin-PIP3 interactions with GST-PDK1_1-556 or GST-PDK1_360-556 were assessed in the standard buffer. […]

Row | Structure (SMILES) | EC50 ([1]; approximate, read-out: EC50, increase of GST-PDK1_1-556 binding to PIFtide) | fold increase of binding of GST-PDK1_1-556 to PIFtide ([1]; different experiments) | displacement of the interaction between PIP3 and full-length PDK1_1-556 [2] | fold higher concentration needed for similar displacement of PIP3 from GST-linker-PH domain than from GST-PDK1_1-556 [3]
1 | O=C(O[C@H]1[C@@H](OP(=O)(O)O)[C@H](OP(=O)(O)O)[C@@H](OP(=O)(O)O)[C@H](OP(=O)(O)O)[C@H]1OP(=O)(O)O)c1ccccc1 [HYG8, 2-O-benzoyl-IP5] | ~2.4 nM | 3-4 fold | – | –
2 | CCCCO[C@H]1[C@@H](OP(=O)(O)O)[C@H](OP(=O)(O)O)[C@@H](OP(=O)(O)O)[C@H](OP(=O)(O)O)[C@H]1OP(=O)(O)O [HYG14, 2-O-butyl-IP5] | – | – | much more potent | more than 1000 fold
